From patent US20220117913A1, “DEZOCINE DERIVATIVE AND MEDICAL USE THEREOF” (YANGTZE RIVER PHARMACEUTICAL GROUP CO., LTD., priority 2019, published 2022)
Structures can show the parent of a compound that is named as a salt. Where two headings read alike, the source gives them in different places.

Assays:
μ opioid receptor = μ opioid receptor (Homo sapiens, UniProt P35372); assay: radioisotope ligand competitive binding assay, μ opioid receptor (MOR)
κ opioid receptor = κ opioid receptor (Homo sapiens, UniProt P41145); assay: radioisotope ligand competitive binding assay, κ opioid receptor (KOR)
Description: (§1) Through the radioisotope ligand competitive binding assay, IC50 of the compound was used as an indicator to evaluate the affinity of the compound to κ and δ opioid receptors.
(§2) (1) Reagents • The cell membrane was extracted from stably transfected cells constructed by WuXi AppTec, Shanghai. • 3H-diprenophrine (PerkinElmer, Cat: NET1121250UC, Lot: 2143599) • 3H-DAMGO (PerkinElmer, Cat: NET902250UC, Lot: 2139100) • 3H-DADLE (PerkinElmer, Cat: NET648250UC, Lot: 2060549) • Tris base (Sigma, Cat: T6066-1KG), prepare 1M stock and adjust pH to 7.4. • 0.5M EDTA (Invitrogen, Cat: 15575-038) • 1M MgCl2 (Sigma, Cat: M1028-100 ml) • PEI (Poly ethyleneimine) (Sigma, Cat: P3143) • Microscint 20 cocktail (PerkinElmer, Cat: 6013329) • Naltrindole (Sigma, Cat; N115) • (±)trans-U-50488 (Sigma, Cat: D8040) • DAMGO (Sigma, Cat: E7384)
(§3) (1) 1 μL of the test compounds, negative control (i.e., DMSO) and positive control (i.e., non-specific binding well compound), after being prepared, were respectively transferred to a 96-well plate;
(§4) (2) 99 μL of the prepared opioid receptor membrane protein was added to each well of the 96-well plate containing 1 μL of the compound;
(§5) (3) 100 μL of 2× corresponding radioisotope ligand was added to each well;
(§6) (4) The plate was placed on a shake and incubated at room temperature for 1 hour;
(§7) (5) Each well of the GF/C plate was soaked with 50 μL of 0.3% PEI for at least half an hour in advance;
(§8) (6) After the incubation was finished, the GF/C plate was washed with plate washing buffer once by using Harvest. Then, the cell membranes in the 96-well plate were collected onto the GF/C plate using Harvest, and the GF/C plate was washed four times with the plate washing buffer, each time about 250 μL;
(§9) (7) The GF/C plate was placed in an oven at 50° C. for 1 hour;
(§10) (8) The bottom of the GF/C plate was sealed with a plate sealing film, 50 μL of Microscint-20 scintillation fluid was added to each well, and then the plate was sealed with a transparent sealing film for microplate;
(§11) (9) The radioactive signal value CPM was read using MicroBeta2;
(§12) (10) The data was analyzed with Prism 5. The percentage inhibition rate was calculated with the calculation formula: % Inh=(1-Background subtracted Assay value/Background subtracted HC value)*100.

δ opioid receptor = δ opioid receptor (Homo sapiens, UniProt P41143); assay: radioisotope ligand competitive binding assay, δ opioid receptor (DOR)
Description: as §1, §2, §3, §4, §5, §6, §7, §8, §9, §10, §11, §12

[1] = pharmacokinetic investigation of intravenous administration in mice; type: in vivo; conditions: mouse; male mice, intravenous injection, plasma
Experimental: Male mice were injected intravenously with the compound of the present disclosure, and the concentration of the unchanged compound in plasma and the concentration of the metabolite of dezocine hydrochloride were measured after the administration.

[2] = system: pain induced by heat radiation in mice; assay: pain induced by heat radiation in mice (light and heat-induced pain); type: in vivo; conditions: for ED50: Mus musculus
Description: A mode of pain induced by heat radiation in mice and a mode of pain induced by hot plate in mice were used to evaluate the analgesic intensity of the test compounds.

[3] = [3H]DAMGO 0.5 nM, cell membrane of stably transfected cells, read-out: μ IC50
[4] = [3H]Diprenorphine 0.3 nM, cell membrane of stably transfected cells, read-out: κ IC50
[5] = [3H]-DADLE 0.5 nM, cell membrane of stably transfected cells, read-out: δ IC50

Row | SMILES | IC50 (μ opioid receptor; [3]) | IC50 (κ opioid receptor; [4]) | IC50 (δ opioid receptor; [5]) | further results
1 | COc1ccc2c(c1)[C@@]1(C)CCCCC[C@@H](C2)[C@@H]1N(C)C [Hydrochloride of compound 11] | 100 to 1000 nM | > 10000 nM | > 10000 nM | –
2 | COc1ccc2c(c1)[C@@]1(C)CCCCC[C@@H](C2)[C@@H]1N(C)Cc1ccccc1 [Hydrochloride of compound 17] | 100 to 1000 nM | > 10000 nM | > 10000 nM | –
3 | CCCN(C)[C@H]1[C@H]2CCCCC[C@]1(C)c1cc(OC)ccc1C2 [Hydrochloride of compound 14] | 100 to 1000 nM | 1000 to 10000 nM | > 10000 nM | –
4 | C[C@@]12CCCCC[C@@H](Cc3ccc(O)cc31)[C@@H]2NCCc1ccc(Cl)c(Cl)c1 [Hydrochloride of compound 27] | 10 to 100 nM | 10 to 100 nM | 100 to 1000 nM | –
5 | CN(CCc1ccccc1)[C@H]1[C@H]2CCCCC[C@]1(C)c1cc(O)ccc1C2 [Hydrochloride of compound 30] | < 10 nM | 10 to 100 nM | 10 to 100 nM | –
6 | CCN[C@H]1[C@H]2CCCCC[C@]1(C)c1cc(O)ccc1C2 [Hydrochloride of compound 19] | < 10 nM | 10 to 100 nM | 1000 to 10000 nM | –
7 | CN[C@H]1[C@H]2CCCCC[C@]1(C)c1cc(O)ccc1C2 [Hydrochloride of compound 18] | 10 to 100 nM | 100 to 1000 nM | 1000 to 10000 nM | –
8 | COc1ccc2c(c1)[C@@]1(C)CCCCC[C@@H](C2)[C@@H]1NCC1CC1 [Hydrochloride of compound 7] | 100 to 1000 nM | 100 to 1000 nM | > 10000 nM | –
9 | CCCCN(C)[C@H]1[C@H]2CCCCC[C@]1(C)c1cc(O)ccc1C2 [Hydrochloride of compound 32] | < 10 nM | 10 to 100 nM | 10 to 100 nM | –
10 | CN(C)[C@H]1[C@H]2CCCCC[C@]1(C)c1cc(O)ccc1C2 [Hydrochloride of compound 28] | < 10 nM | 100 to 1000 nM | 1000 to 10000 nM | –
11 | COc1ccc2c(c1)[C@@]1(C)CCCCC[C@@H](C2)[C@@H]1N(C)CCc1ccccc1 [Hydrochloride of compound 13] | 100 to 1000 nM | > 10000 nM | > 10000 nM | –
12 | CCCCN[C@H]1[C@H]2CCCCC[C@]1(C)c1cc(OC)ccc1C2 [Hydrochloride of compound 4] | 10 to 100 nM | 1000 to 10000 nM | 1000 to 10000 nM | –
13 | CCCN(C)[C@H]1[C@H]2CCCCC[C@]1(C)c1cc(O)ccc1C2 [Hydrochloride of compound 31] | < 10 nM | 100 to 1000 nM | 10 to 100 nM | –
14 | CCOc1ccc2c(c1)[C@@]1(C)CCCCC[C@@H](C2)[C@@H]1NC [Hydrochloride of compound 37] | 1000 to 10000 nM | 1000 to 10000 nM | > 10000 nM | –
15 | CN(Cc1ccccc1)[C@H]1[C@H]2CCCCC[C@]1(C)c1cc(OCc3ccccc3)ccc1C2 [Hydrochloride of compound 40] | < 10 nM | < 10 nM | 10 to 100 nM | –
16 | C[C@@]12CCCCC[C@@H](Cc3ccc(OCc4ccccc4)cc31)[C@@H]2N [Hydrochloride of compound 36] | 10 to 100 nM | 1000 to 10000 nM | 1000 to 10000 nM | –
17 | C[C@@]12CCCCC[C@@H](Cc3ccc(OCc4ccccc4)cc31)[C@@H]2NCc1ccccc1 [Hydrochloride of compound 39] | < 10 nM | 100 to 1000 nM | 100 to 1000 nM | –

Row | SMILES | IC50 (μ opioid receptor; [3]) | IC50 (κ opioid receptor; [4]) | IC50 (δ opioid receptor; [5]) | further results
18 | COc1ccc2c(c1)[C@@]1(C)CCCCC[C@@H](C2)[C@@H]1NCCc1ccc(Cl)c(Cl)c1 [Hydrochloride of compound 10] | 100 to 1000 nM | 1000 to 10000 nM | > 10000 nM | –
19 | CC(C)N[C@H]1[C@H]2CCCCC[C@]1(C)c1cc(O)ccc1C2 [Hydrochloride of compound 23] | 10 to 100 nM | 100 to 1000 nM | 1000 to 10000 nM | –
20 | COc1ccc2c(c1)[C@@]1(C)CCCCC[C@@H](C2)[C@@H]1NCc1ccccc1 [Hydrochloride of compound 9] | 100 to 1000 nM | 100 to 1000 nM | 1000 to 10000 nM | –
21 | C[C@@]12CCCCC[C@@H](Cc3ccc(O)cc31)[C@@H]2NCC1CC1 [Hydrochloride of compound 24] | 10 to 100 nM | 100 to 1000 nM | 1000 to 10000 nM | –
22 | CN[C@H]1[C@H]2CCCCC[C@]1(C)c1cc(OC)ccc1C2 [Hydrochloride of compound 1] | 100 to 1000 nM | 1000 to 10000 nM | > 10000 nM | –
23 | CCOc1ccc2c(c1)[C@@]1(C)CCCCC[C@@H](C2)[C@@H]1N [Hydrochloride of compound 35] | – | – | – | IC50 (μ opioid receptor): 100 to 1000 nM; IC50 (κ opioid receptor): > 10000 nM; IC50 (δ opioid receptor): > 10000 nM
24 | C[C@@]12CCCCC[C@@H](Cc3ccc(O)cc31)[C@@H]2N (relative stereo) [dezocine hydrochloride, (−)-[5R-(5a,11a,13S*)]-13-amino-5,6,7,8,9,10,11,12-octahydro-5-methyl-5,11-methylene benzocyclodecen-3-ol, reference compound] | – | – | – | half-life [1]: 0.903 h
25 | CN[C@H]1[C@H]2CCCCC[C@]1(C)c1cc(OCc3ccccc3)ccc1C2 [Hydrochloride of compound 38] | 10 to 100 nM | 1000 to 10000 nM | 1000 to 10000 nM | –
26 | CCN[C@H]1[C@H]2CCCCC[C@]1(C)c1cc(OC)ccc1C2 [Hydrochloride of compound 2] | 100 to 1000 nM | 1000 to 10000 nM | > 10000 nM | –
27 | CCCCCN(C)[C@H]1[C@H]2CCCCC[C@]1(C)c1cc(OC)ccc1C2 [Hydrochloride of compound 16] | 100 to 1000 nM | > 10000 nM | > 10000 nM | –
28 | C[C@@]12CCCCC[C@@H](Cc3ccc(O)cc31)[C@@H]2N1CCCC1 [Hydrochloride of compound 29] | 10 to 100 nM | 1000 to 10000 nM | 1000 to 10000 nM | –
29 | CCCCCN(C)[C@H]1[C@H]2CCCCC[C@]1(C)c1cc(O)ccc1C2 [Hydrochloride of compound 33] | < 10 nM | 100 to 1000 nM | 100 to 1000 nM | –
30 | COc1ccc2c(c1)[C@@]1(C)CCCCC[C@@H](C2)[C@@H]1NCCc1ccccc1 [Hydrochloride of compound 8] | 10 to 100 nM | > 10000 nM | > 10000 nM | –
31 | CCCN[C@H]1[C@H]2CCCCC[C@]1(C)c1cc(OC)ccc1C2 [Hydrochloride of compound 3] | 10 to 100 nM | 100 to 1000 nM | > 10000 nM | –
32 | C[C@@]12CCCCC[C@@H](Cc3ccc(O)cc31)[C@@H]2NCCc1ccccc1 [Hydrochloride of compound 25] | < 10 nM | 100 to 1000 nM | 100 to 1000 nM | half-life [1]: 1.65 h; ED50 ([2]; female mice, read-out: Light and heat-induced pain ED50 Female): 1.15 mg/kg; ED50 ([2]; male mice, read-out: Light and heat-induced pain ED50 Male): 0.74 mg/kg; Light and heat-induced pain ED95 Female ([2]; female mice): 2.88 mg/kg; Light and heat-induced pain ED95 Male ([2]; male mice): 1.18 mg/kg
33 | COc1ccc2c(c1)[C@@]1(C)CCCCC[C@@H](C2)[C@@H]1NC(C)C [Hydrochloride of compound 6] | 1000 to 10000 nM | 1000 to 10000 nM | > 10000 nM | –
34 | COc1ccc2c(c1)[C@@]1(C)CCCCC[C@@H](C2)[C@@H]1N1CCCC1 [Hydrochloride of compound 12] | 1000 to 10000 nM | > 10000 nM | > 10000 nM | –
